Like-named read-outs stand apart in the source and are kept apart here.
Assays:
[1] = Plasma pharmacokinetics after single i.v. dose; assay type: in vivo, Sprague Dawley rats; settings: Sprague-Dawley, iv, rat

Row | SMILES | melting point | also measured
1 | COc1cc2c(cc1OC)-c1[nH]c3ccc(C#N)cc3c1CC(=O)N2 [2,3-dimethoxy, 9-cyano, 2,3-dimethoxy-6-oxo-5,6,7,12-tetrahydro-indolo[3,2-d][1]benzazepine-9-carbonitrile] | > 330 °C | –
2 | COc1cc2c(cc1OC)-c1[nH]c3ccc([N+](=O)[O-])cc3c1CC(=O)N2 [2,3-dimethoxy, 9-nitro, 2,3-dimethoxy-9-nitro-7,12-dihydro-indolo[3,2-d][1]benzazepin-6(5H)-one] | > 330 °C | –
3 | O=C1Cc2c([nH]c3ccc([N+](=O)[O-])cc23)-c2cc(Br)ccc2N1 [2-Br,9-nitro, 2-bromo-9-nitro-7,12-dihydro-indolo[3,2-d][1]benzazepin-6(5H)-one] | > 330 °C | –
4 | O=C1Cc2c([nH]c3ccc(C(F)(F)F)cc23)-c2cc(C#CC3(O)CCCCC3)ccc2N1 [2-[2-(1-hydroxycyclohexyl)-ethinyl]-9-trifluoromethyl-7,12-dihydro-indolo[3,2-d][1]-benzazepin-6(5H)-one] | > 330 °C | –
5 | COOC/C=C/c1ccc2c(c1)-c1[nH]c3ccc(C(F)(F)F)cc3c1CC(=O)N2 [3-(6-oxo-9-trifluoromethyl-5,6,7,12-tetrahydro-indolo[3,2d][1]benzazepin-2-yl)-acrylic acid methyl ester] | > 330 °C | –
6 | S=C1Cc2c([nH]c3ccc(Br)cc23)-c2ccccc2N1 [6 = S, 9-Br, 9-bromo-7,12-dihydro-indolo[3,2-d][1]benzazepine-6(5H) -thione] | > 330 °C | –
7 | O=C1Cc2c([nH]c3ccccc23)-c2cc(Br)ccc2N1 [Example 2-Br, 2-bromo-7,12-dihydro-indolo[3,2-d][1]benzazepin-6(5H)-one] | > 330 °C | –
8 | COc1ccc2[nH]c3c(c2c1)CC(=O)Nc1ccccc1-3 [Example 9-OCH3, 7,12-dihydro-9-methoxy-indolo[3,2-d][1]benzazepin-6(5H)-one] | > 330 °C | –
9 | O=C1Cc2c([nH]c3ccc([N+](=O)[O-])cc23)-c2ccccc2N1 [Example 9-nitro, 9-nitro-7,12-dihydro-indolo[3,2-d][1]benzazepin-6(5H)-one] | – | clearance ([1]; single i.v. 5 mg/kg in DMSO): 16 mL/min/kg; half-life ([1]; single i.v. 5 mg/kg in DMSO, read-out: half life in the plasma): 46 min; clearance ([1]; single i.v. 10 mg/kg in DMSO): 14 mL/min/kg; half-life ([1]; single i.v. 10 mg/kg in DMSO, read-out: half life in plasma): 66 min
10 | O=C1Cc2c([nH]c3ccc(Br)cc23)-c2cc(C[C@@H]3CO3)ccc2N1 [Example 34] | 308 to 310 °C (dec.) | –

— patent US6610684B2, “Fused azepinone cyclin dependent kinase inhibitors” (The United States of America as represented by the …, priority 1998, dated 2003)
